Source: patent US8158811B2, “Unsaturated fatty hydroxy acid derivatives and the dermocosmetologic use thereof” (Pierre Fabre Dermo-Cosmetique, priority 2005, dated 2012)

Columns and labels:
Interleukin 8 = test: release of Interleukin 8 by keratinocytes NHK stimulated with PMA + calcium ionophore A23187 (ELISA); type: cell-based, human; conditions: IL8 release
PAR-2 receptors = biological target: T1, PAR-2 receptors (Homo sapiens, UniProt P55085); test: calcium flux induced by trypsin stimulation of PAR-2 receptors in HaCaT keratinocytes (Fluo-4/AM); type: cell-based; conditions: trypsin 10 nM
T1 construct: PAR-2 receptors for trypsin present in human keratinocytes from the HaCaT line; endogenous in cells; host or cells: HaCaT human keratinocytes
T1 sequence (P55085 26-397): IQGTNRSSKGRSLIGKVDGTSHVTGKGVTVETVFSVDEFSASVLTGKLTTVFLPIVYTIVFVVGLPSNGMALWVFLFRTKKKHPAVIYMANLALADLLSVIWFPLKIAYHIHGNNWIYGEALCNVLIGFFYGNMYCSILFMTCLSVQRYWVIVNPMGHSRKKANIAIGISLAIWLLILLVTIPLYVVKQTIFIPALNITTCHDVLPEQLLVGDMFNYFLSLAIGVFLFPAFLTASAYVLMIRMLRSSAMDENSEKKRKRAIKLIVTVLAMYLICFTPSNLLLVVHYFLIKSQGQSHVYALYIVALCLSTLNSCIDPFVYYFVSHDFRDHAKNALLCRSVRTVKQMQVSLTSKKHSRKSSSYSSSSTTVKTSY
From the text: We therefore considered evaluating anti-PAR-2 activity of hydroxyl acid derivatives of formula I on the influx of intracellular calcium induced after specific stimulation by PAR-2 receptors for trypsin present in human keratinocytes from the HaCaT line.
This technique is based on the use of an esterified fluorescent probe by an AM group which facilitates its penetration by passive diffusion into the cell. The probe used is Fluo-4/AM. Only the de-esterified form bound to the calcium ion is excitable in fluorescence (at 485 nm) and emits at 535 nm.
In vitro, at the cell level, specific stimulation of the PAR-2 receptors by trypsin leads to mobilisation of intra and extracellular calcium detected with the aid of the fluorescent probe.

[1] = tested on: murine melanome cell line B16-F10; test: melanin synthesis, colorimetric assay, basal and after α-MSH; type: cell-based; conditions: basal situation, 30 μg/ml
Protocol: The modulating effect of unsaturated fatty hydroxy acid derivatives on melanogenesis was analysed. To do this, measurement of melanin synthesis by colorimetric assay was performed on a murine melanome cell line: line B16-F10.
The effect of products was investigated in a basal situation and after stimulation by α-MSH in order to determine depigmenting capacity.
Levels of extracellular and intracellular melanin were measured by spectrophotometry at a wavelength of 405 nm according to the protocol described by Anob et al., 1999. The amount of pigment was determined using a standard melanin range and analysis on Microwin software (Berthold Biotechnologies). A total protein assay was carried out for intracellular melanin samples by means of the BCA-Copper method at 540 nm. The standard range was made up using standard protein BSA (Bovine Serum Albumin).

SMILES	ED50 (Interleukin 8) [µg/mL]	% inhibition (PAR-2 receptors; 0.1 μg/ml) [%]	% stimulation (PAR-2 receptors; 0.1 μg/ml) [%]	% inhibition (PAR-2 receptors; 0.3 μg/ml) [%]	% stimulation (PAR-2 receptors; 0.3 μg/ml) [%]	% inhibition (PAR-2 receptors; 1 μg/ml) [%]	% stimulation (PAR-2 receptors; 1 μg/ml) [%]	% inhibition (PAR-2 receptors; 3 μg/ml) [%]	% stimulation (PAR-2 receptors; 3 μg/ml) [%]	% inhibition (PAR-2 receptors; 10 μg/ml) [%]	% stimulation (PAR-2 receptors; 10 μg/ml) [%]	% inhibition (PAR-2 receptors; 30 μg/ml) [%]	% stimulation (PAR-2 receptors; 30 μg/ml) [%]	% inhibition (PAR-2 receptors; 100 μg/ml) [%]	% stimulation (PAR-2 receptors; 100 μg/ml) [%]	inhibition of melanin synthesis [1] [%]
O=C(O)/C=C/CCCCCCCCCCCCCCO [n=13, R=H, Rn=H, R1=H, 17-hydroxy-heptadec-2t-enoic acid]	<3															
O=C(O)C(F)=CCCCCCCCCCCCCCCO [n=13, R=H, Rn=H, R1=F, 17-hydroxy-heptadec-2-fluoro-2-enoic acid]	<3	−1	13.78	6	13.06	9	12.74	7	12.97	42	9.55					
O=C(O)/C=C/CCCCCCCCCCCO [n=10, R=H, Rn=H, R1=H, 14-hydroxy-tetradec-2t-enoic acid]										−17	15.33	−4	14.10	39	9.84	15
